According to publication PMC4684281, “Antitumor Effects and Mechanism of Novel Emodin Rhamnoside Derivatives against Human Cancer Cells In Vitro” (PLoS ONE, 2015):
Entries after “also recorded” stand apart in the source; their conditions may differ. Like-named read-outs stand apart in the source and are kept apart here.

Tests used:
HepG2 cells [1] = experiment: MTT cell viability assay, HepG2; type: cell-based, Human; settings: for IC50: HepG2
Method: (§1) The viability of cancer cells was evaluated by MTT assay. Briefly, cells were inoculated in 96-well culture plates at the density of 1×10^4/well with complete medium containing 10% fetal calf serum in a final volume of 0.2 mL. Cells were incubated at 37°C for at least 24 hours to allow optimal attachment. When the cells reached 60% confluence, they were treated with Cisplatin, HCPT and emodin rhamnopyranosides derivatives in various concentrations, and incubated in a humidity-controlled 5%CO2 incubator at 37°C for 72 hours. Medium were exchanged once every 24 hours. Cell control group and blank group were set up in the same manner, with each group having six parallel wells. Cell survival was assessed by directly adding 22 μL of 5mg/mL MTT to 0.2 mL medium. After three hours, the formazan precipitate was dissolved in 200μL isopropanol per well, and completely mixed under room temperature. Afterwards, the optical density of each well was detected at 570 nm wavelength by iMark microplate reader (Bio-rad,USA). This experiment was repeated at least three times.

SGC-7901 cells = experiment: MTT cell viability assay, SGC-7901; type: cell-based; settings: Homo sapiens
Method: as §1

[2] = system: Cyto C, caspase-3 and caspase-9 proteins in HepG2 cells; experiment: Western blot analysis of apoptotic proteins; type: cell-based, Human; settings: HepG2, compared to control group
Method: HepG2 cells were inoculated, cultured and harvested as described previously. Afterwards, the experiment was performed on ice. The harvested cell pellet was washed with cold PBS before being resuspended in 300μL cytosol lysis buffer through vortex. Then cells of all samples were lysed by sonication method on the ice using the ultrasonic cell disruptor (100 W for 30s×4 times). Total protein of each sample was measured by Bradford assay using protein quantification reagents from Bio-Rad. All samples were added 2×loading buffer before analyzing on 12% gels by SDS-PAGE. Then the proteins were transferred to nitrocellulose membranes by electro-blotting. The membranes were blocked in 1% bovine serum albumin (BSA) or 5% milk solution at room temperature for 30min, followed by incubation with the primary antibody against rabbit (Univ-bio, China) at 4°C overnight. The membranes were then washed three times with 1×TBST, each time last for 5 mins. The membranes were then incubated with the secondary antibodies for 3 h at 4°C, followed by washing with 1×TBST as described previously. Finally, the immuno-reactive bands were detected and documented using an enhanced chemiluminescent Western blotting system (Thermo-scientific, USA) on a Versa Doc imaging system.

[3] = system: Caspase-3 gene expression of HepG2 cells; experiment: RT-qPCR gene expression, Caspase-3; type: cell-based, Human; settings: 48 hours, control 1.022±0.258
Method: HepG2 cells were inoculated in 6-well culture plates at a density of 3×10^5 cells/well, and allowed to attach at 37°C for 24 hours. Then cells were treated with specific concentrations of EM-d-Rha and incubated in a humidified incubator supplied with 5% CO2 at 37°C for 48 hours. Medium were changed once every 24 hours. Afterwards, mRNA was extracted from every group using E.Z.N.A.^TM Total RNA Kit II according to the manufacturer’s instructions. The extracted mRNA was dissolved in 20 μL ddH2O (Qiagen) containing diethyl pyrocarbonate (DEPC). The concentration of mRNA was quantified with a NanoDrop ND-100 device (Thermo Fisher Scientific). cDNA was synthesized using 3μg of the extracted mRNA from each sample with PCR system (BIO-RAD,USA). The cDNA synthesis reaction was prepared according to the manufacturer’s instructions by mixing 3μg mRNA, 4.0μL 5× MMLV buffer, 3 μL oligodT18, 0.5μL 10 mM dNTP solution, 0.8μL RNase inhibitor, 3.7μL MMLV Rtase, and 6.0μL DEPC ddH2O in PCR tubes. The reaction condition was 5min at 70°C, 60 min at 42°C and 10min at 4°C. The products were used for subsequent RT-qPCR analysis. The level of mRNA expression was measured by RT-qPCR using a CFX96^TM C1000 Real-Time PCR System (BIO-RAD, USA).The primers were designed using idt.dna software system (http //www.idtdna.com). The specific primers were: Cyto C: 5′-[…]-3′ (forward), 5′- […] -3′ (reverse); Caspase 3: 5′- CCTACAGCCCATTTC TCCATAC-3′ (forward), 5′-[…]-′ (reverse); β-actin: 5′-[…]-3′ (forward), 5′-[…]-3′ (reverse). The product sizes of Cyto C, Caspase 3 and β-actin were 91bp, 125bp and 107bp, respectively. […]
Master Mix (Promega), 0.3μL of each primer (10μM), and 1.0 μL cDNA template. […] Each sample was analyzed in quadruplicate and mean was used for further analysis. The mRNA expression levels of each sample were quantified by measuring the threshold cycle (CT) values of genes. The relative values of the target gene expression were calculated according to CT values of the target genes and the reference gene (β-actin) by applying Livak and Schmittgen method. […]

HepG2 cells [4] = experiment: Morphological analysis (bright-field microscopy); type: cell-based, Human; settings: HepG2, 0.1-62.5μM, 48 h, dose dependent
Method: For morphological observation, HepG2 cells in logarithmic growth phase were seeded in a 96-well plate at the density of 1×10^4/well with 0.2 mL complete medium containing 10% fetal calf serum. Cells were allowed to attach at 37°C for 24 hours. Then cells were treated with EM-d-Rha and HCPT at a specific concentration. Each group has six parallel wells. […] Medium were exchanged once every 24 hours.

IC50 (HepG2 cells [1]; Homo sapiens, MTT at 72h, n=3, mean±S.E.M, read-out: IC50 for EM-d-Rha, HepG2): 1810 ± 440 nM
IC50 (HepG2 cells [1]; Homo sapiens, MTT, 72 hours, read-out: IC50 values, HepG2): 0.65 µg/mL
Decrease of IC50 compared to the IC50 of emodin, HepG2 (HepG2 cells [1]; from Table 1): 19.68 fold
IC50 (SGC-7901 cells; MTT at 72h, n=3, mean±S.E.M, read-out: IC50 for EM-d-Rha, SGC-7901): 1990 ± 120 nM
Compound: CC(=O)O[C@@H]1[C@@H](O[C@@H]2O[C@@H](C)[C@H](O)[C@@H](OC(C)=O)[C@H]2OC(C)=O)[C@H](C)O[C@@H](Oc2cc(O)c3c(c2)C(=O)c2cc(C)cc(O)c2C3=O)[C@@H]1OC(C)=O [S-8, 3-(2”,3”-Di-O-acetyl-α-L-rhamnopyranosyl-(1→4)-2’,3’-di-O-acetyl-α-L-rhamnopyranosyl)-emodin]
Activity against HepG2 cells relative to comparators (dose-response curves) (HepG2 cells [1]; HepG2 treated for three day, Fig 3, listed as EM-d-Rha): stronger in comparison to that of emodin; also recorded: inferior as compared to that of Cisplatin and HCPT
inhibition at 0.1 µM (HepG2 cells [1]; Homo sapiens, HepG2, 0.1μM, MTT 72h, read-out: The inhibition rate of EM-d-Rha): 4.6 ± 5.04%
inhibition at 0.5 µM (HepG2 cells [1]; Homo sapiens, HepG2, 0.5μM, MTT 72h, read-out: The inhibition rate of EM-d-Rha): 24.3 ± 6.54%
inhibition at 2.5 µM (HepG2 cells [1]; Homo sapiens, HepG2, 2.5μM, MTT 72h, read-out: The inhibition rate of EM-d-Rha): 70.7 ± 3.54%
inhibition at 12.5 µM (HepG2 cells [1]; Homo sapiens, HepG2, 12.5μM, MTT 72h, read-out: The inhibition rate of EM-d-Rha): 90.97 ± 0.72%
inhibition at 62.5 µM (HepG2 cells [1]; Homo sapiens, HepG2, 62.5μM, MTT 72h, read-out: The inhibition rate of EM-d-Rha): 91.46 ± 0.46%
inhibition at 0.1 µM (SGC-7901 cells; SCG-7901, 0.1μM, MTT 72h, read-out: The inhibition rate of EM-d-Rha): 20.1 ± 0.18%
inhibition at 0.5 µM (SGC-7901 cells; SCG-7901, 0.5μM, MTT 72h, read-out: The inhibition rate of EM-d-Rha): 40.99 ± 0.02%
inhibition at 2.5 µM (SGC-7901 cells; SCG-7901, 2.5μM, MTT 72h, read-out: The inhibition rate of EM-d-Rha): 42.63 ± 0.02%
inhibition at 12.5 µM (SGC-7901 cells; SCG-7901, 12.5μM, MTT 72h, read-out: The inhibition rate of EM-d-Rha): 95.01 ± 0.01%
inhibition at 62.5 µM (SGC-7901 cells; SCG-7901, 62.5μM, MTT 72h, read-out: The inhibition rate of EM-d-Rha): 94.33 ± 0.05%
Expression levels of Cyto C, caspase-3 and caspase-9 proteins (western-blot) [2]: three proteins expression increased at a concentration-dependent manner
Caspase-3 mRNA expression level relative to controls ([3]; HepG2, 0.70μM): 0.949±0.259 fold
Caspase-3 mRNA expression level relative to controls ([3]; HepG2, 1.40μM): 0.900±0.190 fold
Caspase-3 mRNA expression level relative to controls ([3]; HepG2, 5.60μM): 4.413±3.730 fold
Cell morphology (bright-field) (HepG2 cells [4]): morphological changes of apoptosis such as reduction in cell volume and losing cell-cell contacts
